Data reported in patent US12084436B2, “Heterocyclic compound” (Takeda Pharmaceutical Company Limited, priority 2019, dated 2024).

target: T1, HDAC6 enzyme (Homo sapiens, UniProt Q9UBN7); assay: HDAC6 enzyme inhibitory assay (HDAC-Glo I/II Assay kit, luminescence); format: biochemical; details: 10 μM test compound; wells without enzyme = 100% inhibition; read-out: HDAC6 inhibitory rate (%) (10 μM)
T1 construct: prepared by transducing full length HDAC6 gene into Sf-9 insect cells; GST; purchased SignalChem; host or cells: Sf-9 insect cells
T1 sequence (Q9UBN7 1-1215): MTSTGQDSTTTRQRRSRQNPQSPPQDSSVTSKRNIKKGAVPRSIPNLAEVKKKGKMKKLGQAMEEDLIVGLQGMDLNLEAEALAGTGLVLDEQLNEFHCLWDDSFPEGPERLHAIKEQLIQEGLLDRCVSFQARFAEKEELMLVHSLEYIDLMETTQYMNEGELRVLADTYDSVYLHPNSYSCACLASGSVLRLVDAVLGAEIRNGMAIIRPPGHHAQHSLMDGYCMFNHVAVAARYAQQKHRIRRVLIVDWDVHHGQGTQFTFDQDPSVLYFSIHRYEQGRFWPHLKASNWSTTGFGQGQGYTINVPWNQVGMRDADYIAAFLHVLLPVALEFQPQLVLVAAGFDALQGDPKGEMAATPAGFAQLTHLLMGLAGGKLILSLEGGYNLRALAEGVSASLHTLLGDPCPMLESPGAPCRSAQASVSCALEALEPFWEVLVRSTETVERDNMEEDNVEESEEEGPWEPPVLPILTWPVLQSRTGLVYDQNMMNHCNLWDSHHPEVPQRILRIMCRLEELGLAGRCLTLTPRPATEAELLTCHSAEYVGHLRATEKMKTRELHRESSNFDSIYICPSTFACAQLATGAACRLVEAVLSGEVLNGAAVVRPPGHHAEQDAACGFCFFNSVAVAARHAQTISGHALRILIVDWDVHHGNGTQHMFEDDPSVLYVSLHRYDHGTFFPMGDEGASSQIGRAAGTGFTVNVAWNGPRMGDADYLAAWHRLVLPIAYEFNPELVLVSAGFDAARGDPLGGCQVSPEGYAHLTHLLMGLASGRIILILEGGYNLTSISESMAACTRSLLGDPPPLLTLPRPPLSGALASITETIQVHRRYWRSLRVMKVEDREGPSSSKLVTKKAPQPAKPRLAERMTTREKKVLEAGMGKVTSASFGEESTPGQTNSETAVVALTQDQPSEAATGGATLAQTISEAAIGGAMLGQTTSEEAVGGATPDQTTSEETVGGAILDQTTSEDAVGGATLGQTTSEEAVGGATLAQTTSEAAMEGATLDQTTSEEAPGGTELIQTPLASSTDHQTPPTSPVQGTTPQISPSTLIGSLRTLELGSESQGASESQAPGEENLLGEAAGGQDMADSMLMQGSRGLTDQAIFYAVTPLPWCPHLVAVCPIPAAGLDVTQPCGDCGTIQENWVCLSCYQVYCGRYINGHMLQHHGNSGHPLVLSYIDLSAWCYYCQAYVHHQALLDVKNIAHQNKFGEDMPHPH
Procedure, shortened: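 Full-length human HDAC6, GST-purified from Sf-9 cells, was preincubated with compound for 60 min at room temperature in Tris-HCl pH 7.5 buffer with glutathione and Tween-20. Substrate-developer was then added, and luminescence was read after 20 min at room temperature. Inhibition was expressed relative to no-enzyme wells, taken as 100% inhibition.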

inhibition at 10 µM [%] | SMILES
101 | CN1C(=O)c2cc(-c3nnc(C(F)F)o3)ccc2C[C@]1(C)c1ccc(F)c(F)c1 [Example 50b, (3R)-7-[5-(difluoromethyl)-1,3,4-oxadiazol-2-yl]-3-(3,4-difluorophenyl)-2,3-dimethyl-3,4-dihydroisoquinolin-1(2H)-one]
98 | CCOC(=O)CCCN(C)N1Cc2ccc(-c3nnc(C(F)F)o3)cc2C1=O [Example 50c, ethyl 4-[{6-[5-(difluoromethyl)-1,3,4-oxadiazol-2-yl]-1-oxo-1,3-dihydro-2H-isoindol-2-yl}(methyl)amino]butanoate]
99 | COCC1(c2ccccc2)Oc2ccc(-c3nnc(C(F)F)o3)cc2C(=O)N1C (stereo not drawn) [Example 51b, 6-[5-(difluoromethyl)-1,3,4-oxadiazol-2-yl]-2-(methoxymethyl)-3-methyl-2-phenyl-2,3-dihydro-4H-1,3-benzoxazin-4-one]
100 | CN(Cc1ccnc(F)c1)N1Cc2ccc(-c3nnc(C(F)F)o3)cc2C1=O [Example 51c, 6-[5-(difluoromethyl)-1,3,4-oxadiazol-2-yl]-2-{[(2-fluoropyridin-4-yl)methyl](methyl)amino}-2,3-dihydro-1H-isoindol-1-one]
100 | COCCN1C(=O)c2cc(-c3nnc(C(F)F)o3)ccc2OC1(C)c1ccc(F)cc1 (stereo not drawn) [Example 52b, 6-[5-(difluoromethyl)-1,3,4-oxadiazol-2-yl]-2-(4-fluorophenyl)-3-(2-methoxyethyl)-2-methyl-2,3-dihydro-4H-1,3-benzoxazin-4-one]
100 | CC(=O)Nc1ccc(CN(C)N2Cc3ccc(-c4nnc(C(F)F)o4)cc3C2=O)cc1 [Example 52c, N-(4-{[{6-[5-(difluoromethyl)-1,3,4-oxadiazol-2-yl]-1-oxo-1,3-dihydro-2H-isoindol-2-yl}(methyl)amino]methyl}phenyl) acetamide]
100 | Cn1ccc(OC2CCOCC2)c(-c2cc(F)cc(-c3nnc(C(F)F)o3)c2)c1=O [Example 53a, 3-{3-[5-(difluoromethyl)-1,3,4-oxadiazol-2-yl]-5-fluorophenyl}-1-methyl-4-[(oxan-4-yl)oxy]pyridin-2(1H)-one]
98 | CN1C(=O)c2cc(-c3nnc(C(F)F)o3)cnc2C[C@]1(C)c1cccc(F)c1 [Example 53b, (7R)-3-[5-(difluoromethyl)-1,3,4-oxadiazol-2-yl]-7-(3-fluorophenyl)-6,7-dimethyl-7,8-dihydro-1,6-naphthyridin-5(6H)-one]
101 | CN(Cc1cccc(-c2cnccn2)c1)N1Cc2ccc(-c3nnc(C(F)F)o3)cc2C1=O [Example 53c, 6-[5-(difluoromethyl)-1,3,4-oxadiazol-2-yl]-2-(methyl{[3-(pyrazin-2-yl)phenyl]methyl}amino)-2,3-dihydro-1H-isoindol-1-one]
89 | Cc1nnc(Cn2ccnc2-c2cc(F)cc(-c3nnc(C(F)F)o3)c2)o1 [Example 54a, 2-(difluoromethyl)-5-(3-fluoro-5-{1-[(5-methyl-1,3,4-oxadiazol-2-yl)methyl]-1H-imidazol-2-yl}phenyl)-1,3,4-oxadiazole]

Second part, the compound before the results:

SMILES | inhibition at 10 µM [%]
Fc1cccc(Cn2ccnc2-c2cc(F)cc(-c3nnc(C(F)F)o3)c2)c1 [Example 44a, 2-(difluoromethyl)-5-(3-fluoro-5-{1-[(3-fluorophenyl)methyl]-1H-imidazol-2-yl}phenyl)-1,3,4-oxadiazole] | 99
CN1C(=O)c2cc(-c3nnc(C(F)F)o3)ccc2OC1c1ccc(F)cc1 (stereo not drawn) [Example 44b, 6-[5-(difluoromethyl)-1,3,4-oxadiazol-2-yl]-2-(4-fluorophenyl)-3-methyl-2,3-dihydro-4H-1,3-benzoxazin-4-one] | 100
COC(=O)c1ccccc1CN(C)N1Cc2ccc(-c3nnc(C(F)F)o3)cc2C1=O [Example 44c, methyl 2-{[{6-[5-(difluoromethyl)-1,3,4-oxadiazol-2-yl]-1-oxo-1,3-dihydro-2H-isoindol-2-yl}(methyl)amino]methyl}benzoate] | 102
Fc1cc(-c2nnc(C(F)F)o2)cc(-c2nccn2Cc2ccc(F)c(F)c2)c1 [Example 45a, 2-(difluoromethyl)-5-(3-{1-[(3,4-difluorophenyl)methyl]-1H-imidazol-2-yl}-5-fluorophenyl)-1,3,4-oxadiazole] | 100
CCN1C(=O)c2cc(-c3nnc(C(F)F)o3)ccc2OC1(C)c1ccc(F)cc1 (stereo not drawn) [Example 45b, 6-[5-(difluoromethyl)-1,3,4-oxadiazol-2-yl]-3-ethyl-2-(4-fluorophenyl)-2-methyl-2,3-dihydro-4H-1,3-benzoxazin-4-one] | 100
CN(Cc1ccc2nccn2c1)N1Cc2ccc(-c3nnc(C(F)F)o3)cc2C1=O [Example 45c, 6-[5-(difluoromethyl)-1,3,4-oxadiazol-2-yl]-2-{[(imidazo[1,2-a]pyridin-6-yl)methyl](methyl)amino}-2,3-dihydro-1H-isoindol-1-one] | 99
Fc1ccc(Cn2ccnc2-c2cc(F)cc(-c3nnc(C(F)F)o3)c2)cc1 [Example 46a, 2-(difluoromethyl)-5-(3-fluoro-5-{1-[(4-fluorophenyl)methyl]-1H-imidazol-2-yl}phenyl)-1,3,4-oxadiazole] | 99
CCN1C(=O)c2cc(-c3nnc(C(F)F)o3)ccc2CN1c1ccc(F)cc1 [Example 46b, 7-[5-(difluoromethyl)-1,3,4-oxadiazol-2-yl]-2-ethyl-3-(4-fluorophenyl)-3,4-dihydrophthalazin-1(2H)-one] | 100
CCOC(=O)CN(C)N1Cc2ccc(-c3nnc(C(F)F)o3)cc2C1=O [Example 46c, ethyl N-{6-[5-(difluoromethyl)-1,3,4-oxadiazol-2-yl]-1-oxo-1,3-dihydro-2H-isoindol-2-yl}-N-methylglycinate] | 99
Fc1cc(-c2nnc(C(F)F)o2)cc(-n2nccc2OC2CCOCC2)c1 [Example 47a, 2-(difluoromethyl)-5-(3-fluoro-5-{5-[(oxan-4-yl)oxy]-1H-pyrazol-1-yl}phenyl)-1,3,4-oxadiazole] | 99
CC1(c2ccc(F)cc2)Oc2ccc(-c3nnc(C(F)F)o3)cc2C(=O)N1CC1CC1 (stereo not drawn) [Example 47b, 3-(cyclopropylmethyl)-6-[5-(difluoromethyl)-1,3,4-oxadiazol-2-yl]-2-(4-fluorophenyl)-2-methyl-2,3-dihydro-4H-1,3-benzoxazin-4-one] | 101
CN(Cc1cccc2cnccc12)N1Cc2ccc(-c3nnc(C(F)F)o3)cc2C1=O [Example 47c, 6-[5-(difluoromethyl)-1,3,4-oxadiazol-2-yl]-2-{[(isoquinolin-5-yl)methyl](methyl)amino}-2,3-dihydro-1H-isoindol-1-one] | 100
O=C1c2cc(-c3nnc(C(F)F)o3)ccc2CN(c2ccc(F)cc2)N1CC(F)F [Example 48b, 2-(2,2-difluoroethyl)-7-[5-(difluoromethyl)-1,3,4-oxadiazol-2-yl]-3-(4-fluorophenyl)-3,4-dihydrophthalazin-1(2H)-one] | 101
CN(CCOCc1ccccc1)N1Cc2ccc(-c3nnc(C(F)F)o3)cc2C1=O [Example 48c, 2-{[2-(benzyloxy)ethyl](methyl)amino}-6-[5-(difluoromethyl)-1,3,4-oxadiazol-2-yl]-2,3-dihydro-1H-isoindol-1-one] | 99
Fc1cc(-c2nnc(C(F)F)o2)cc(-c2nccn2Cc2cccnc2)c1 [Example 49a] | 99
CN1C(=O)c2cc(-c3nnc(C(F)F)o3)ccc2C[C@@]1(C)c1ccc(F)c(F)c1 [Example 49b, (3S)-7-[5-(difluoromethyl)-1,3,4-oxadiazol-2-yl]-3-(3,4-difluorophenyl)-2,3-dimethyl-3,4-dihydroisoquinolin-1(2H)-one] | 42
CN(Cc1cc(O)ccc1F)N1Cc2ccc(-c3nnc(C(F)F)o3)cc2C1=O [Example 49c, 6-[5-(difluoromethyl)-1,3,4-oxadiazol-2-yl]-2-{[(2-fluoro-5-hydroxyphenyl)methyl](methyl)amino}-2,3-dihydro-1H-isoindol-1-one] | 100
